Measured values published in ChEMBL document CHEMBL1143770, “Mono, di and tri-mannopyranosyl phosphates as mannose-1-phosphate prodrugs for potential CDG-Ia therapy” (Bioorg Med Chem Lett, 2007).

Key:
[1] = Inhibition 2[3H]mannose incorporation into glycoconjugates in lymphoblasts isolated from congenital disorders of glycosylation-Ia patient at 300 uM; format: functional; conditions: Homo sapiens, Lymphoblast
[2] = Cytotoxicity in human lymphoblasts assessed as release of cellular lactate dehydrogenase at 300 uM after 16 hrs relative to methanol; format: cell-based; conditions: lymphoblast

| SMILES | inhibition at 300 µM [1] [%] | Activity [2] |
| --- | --- | --- |
| CC(=O)OC[C@H]1O[C@H](OP(=O)(Oc2ccccc2)O[C@H]2O[C@H](COC(C)=O)[C@@H](OC(C)=O)[C@H](OC(C)=O)[C@@H]2OC(C)=O)[C@@H](OC(C)=O)[C@@H](OC(C)=O)[C@@H]1OC(C)=O (single isomer, unassigned) | 26 | – |
| CCCC(=O)OC[C@H]1O[C@H](OP(=O)(OCc2ccccc2)O[C@H]2O[C@H](COC(=O)CCC)[C@@H](OC(=O)CCC)[C@H](OC(=O)CCC)[C@@H]2OC(=O)CCC)[C@@H](OC(=O)CCC)[C@@H](OC(=O)CCC)[C@@H]1OC(=O)CCC (single isomer, unassigned) | 71 | – |
| CC(C)C(=O)OC[C@H]1O[C@H](OP(=O)(Oc2ccccc2)O[C@H]2O[C@H](COC(=O)C(C)C)[C@@H](OC(=O)C(C)C)[C@H](OC(=O)C(C)C)[C@@H]2OC(=O)C(C)C)[C@@H](OC(=O)C(C)C)[C@@H](OC(=O)C(C)C)[C@@H]1OC(=O)C(C)C (single isomer, unassigned) | 78 | – |
| CC(=O)OC[C@H]1O[C@H](OP(=O)(Oc2cccc3ccccc23)O[C@H]2O[C@H](COC(C)=O)[C@@H](OC(C)=O)[C@H](OC(C)=O)[C@@H]2OC(C)=O)[C@@H](OC(C)=O)[C@@H](OC(C)=O)[C@@H]1OC(C)=O (single isomer, unassigned) | 56 | <= 25% |
